# Test results reported in patent US20080234368A9, “Therapeutic compositions and methods of use” (Trustees of Dartmouth College, priority 1998, published 2008).
# Assays:
# COX-2 = test: TPA-induced COX-2 in 18Co cells; type: cell-based, human
# Text: These cells were selected because of the importance of stromal cell COX-2 in colon carcinogenesis (Oshima et al., 1996). […] Although CDDO effectively blocks the induction of COX-2 by agents such as IFN-γ, LPS, TNF-α, and IL-1, CDDO is ineffective when TPA is used as the inducer of COX-2. This has been seen in 18Co cells, as well as in the human mammary epithelial cell line, 184B5/HER (Zhai et al., 1993).
# [1] = system: PGE2 production in primary macrophages; test: Suppression of PGE2 production in primary macrophages (FIG. 14C); type: cell-based, mouse; conditions: levels as low as 10^−9 M; IFN-γ 5 ng/ml and LPS 5 ng/ml, 48 h
# Procedure: (§1) FIG. 14(A) illustrates Western blots; primary mouse macrophages; IFN-γ, 10 ng/ml; LPS, 2 ng/ml were added to cultures together with triterpenoids or dexamethasone (concentrations shown as […]); cells were harvested at 12 h. FIG. 14(B) illustrates Northern blots, RAW 264.7 macrophage-like cell line. IFN-γ, 10 ng/ml; LPS, 1 ng/ml; TNF-α, 10 ng/ml, were added to cultures together with CDDO or dexamethasone. RNA prepared after 12 h; GAPDH used as a loading control. FIG. 14(C) illustrates suppression of production of NO and PGEF in primary macrophages. For NO studies, cells were treated with IFN-γ, 10 ng/ml, together with CDDO (M), dexamethasone (O), TP-82 (□), or oleanolic acid (A). After 48 h, supernatants were analyzed for NO by the Griess reaction. For PGEF studies, cells were treated with IFN-γ, 5 ng/ml, and LPS, 5 ng/ml, together with the same set of inhibitors. After 48 h, PGE was measured in supernatants by immunoassay. Control values (no inhibition) for NO and PGE2 were 4.7 nmol/[…] and 2.2 ng/ml/2×10^5 cells, respectively. FIGS. (14D) and (14E) illustrate (human colon myofibroblasts) ^18Co cells grown in MEM/10% FBS; other methods are the same as reported above for macrophages. FIG. 14(D) illustrates Northern blots showing dose-response for suppression of COX-2 mRNA after induction with IL-1β (30 pg/ml). CDDO was added together with IL-1. […]
# iNOS enzymatic activity = molecular target: T1, iNOS enzymatic activity (Mus musculus, UniProt P29477); test: NO production in RAW cells with enzyme synthesis already induced; type: cell-based; conditions: added after enzyme synthesis induced; data not shown
# T1 construct: added to RAW cells in which synthesis of these two enzymes has already been induced; endogenous in cells; host or cells: RAW 264.7 mouse macrophage-like cells, enzyme synthesis pre-induced
# T1 sequence (P29477 whole entry): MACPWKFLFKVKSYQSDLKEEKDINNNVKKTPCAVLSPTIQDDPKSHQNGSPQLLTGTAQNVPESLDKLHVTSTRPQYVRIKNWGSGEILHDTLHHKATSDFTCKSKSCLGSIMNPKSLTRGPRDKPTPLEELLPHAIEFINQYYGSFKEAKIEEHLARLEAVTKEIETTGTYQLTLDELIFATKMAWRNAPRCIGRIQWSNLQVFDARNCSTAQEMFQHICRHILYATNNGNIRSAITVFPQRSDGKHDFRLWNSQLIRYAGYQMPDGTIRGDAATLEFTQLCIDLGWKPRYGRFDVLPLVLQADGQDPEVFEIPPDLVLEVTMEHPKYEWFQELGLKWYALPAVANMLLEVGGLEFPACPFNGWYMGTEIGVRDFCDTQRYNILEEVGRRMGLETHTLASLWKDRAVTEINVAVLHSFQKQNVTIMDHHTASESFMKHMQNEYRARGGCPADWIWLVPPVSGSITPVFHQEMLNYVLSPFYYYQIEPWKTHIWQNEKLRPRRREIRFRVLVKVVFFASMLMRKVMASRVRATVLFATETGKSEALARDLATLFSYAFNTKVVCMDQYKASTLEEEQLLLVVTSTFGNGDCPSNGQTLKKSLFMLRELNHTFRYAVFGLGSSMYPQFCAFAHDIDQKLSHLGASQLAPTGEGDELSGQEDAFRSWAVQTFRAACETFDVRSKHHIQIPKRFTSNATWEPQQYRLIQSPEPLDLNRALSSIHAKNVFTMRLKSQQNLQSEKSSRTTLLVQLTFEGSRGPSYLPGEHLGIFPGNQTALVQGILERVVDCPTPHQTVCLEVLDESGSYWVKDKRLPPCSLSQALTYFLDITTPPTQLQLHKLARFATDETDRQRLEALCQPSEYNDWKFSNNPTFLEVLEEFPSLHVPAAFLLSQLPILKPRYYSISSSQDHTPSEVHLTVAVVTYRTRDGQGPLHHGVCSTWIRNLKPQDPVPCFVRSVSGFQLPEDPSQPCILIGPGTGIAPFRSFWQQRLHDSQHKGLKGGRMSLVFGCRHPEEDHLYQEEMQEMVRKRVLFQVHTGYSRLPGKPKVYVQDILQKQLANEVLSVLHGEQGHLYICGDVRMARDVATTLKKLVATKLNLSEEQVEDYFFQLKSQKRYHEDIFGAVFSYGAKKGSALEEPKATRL
# Text: These effects of CDDO have been seen in primary mouse macrophages, a mouse macrophage-like tumor cell line (RAW 264.7), and in non-neoplastic human colon fibroblasts. […] Neither iNOS nor COX-2 expression can be detected in these cells until they are stimulated by an inflammatory mediator such as IFN-γ, or LPS. […] The above effects on INOS and COX-2 are also reflected in the cumulative production of their respective enzyme products, NO and PGE2, as measured in primary macrophages (FIG. 14C). […] Likewise, the actions of CDDO are not blocked by the glucocorticoid antagonist, RU-486, which is known to bind to the glucocorticoid receptor (data not shown). In these regards, CDDO is identical to the other oleanolic acid derivatives previously studied (Suh et al., 1998).
# rat hippocampal neurons = test: Protection of hippocampal neurons from β-amyloid induced cell death, MTT assay; type: cell-based
# Procedure: (§2) For the following examples, stock solutions of CDDO (0.01 M) were made in DMSO and aliquots frozen at −20° C. Serial dilutions were made in DMSO before addition to cell culture media. Primary rat microglia and hippocampal neurons were isolated and cultured as described by Flaris et al., 1993 and Ren and Flanders, 1996.
# (§3) The roles of inflammatory mediators, as well as aberrant programs for cell survival and apoptosis, in the genesis of cancer and Alzheimer's Disease are now undergoing serious investigation (McGeer and McGeer, 1995; Merrill and Benveniste, 1996; Akama et al., 1998). CDDO was tested in this example as a suppressor of de novo formation of iNOS in cultured microglia (the resident macrophages of the brain), as well as its ability to protect cultured hippocampal neurons from cell death induced by β-amyloid. […] Thus, LPS (5 ng/ml) induced iNOS in primary microglial cultures and caused a 27-fold increase in production of NO within 18 h. Concomitant treatment of these cultures with CDDO at either 10^−6 or 10 ^−7 M inhibited this induction by 73% and 52%, respectively. We have also explored the possibility that CDDO can protect cultured hippocampal neurons from cell death induced by the peptide β-amyloid, since NO has been implicated (Akama et al., 1998) in the neurotoxic actions of this peptide which is central to the pathogenesis of Alzheimer's disease (Selkoe, 1997). Hippocampal neurons were isolated and cultured from 16 day rat embryos and then treated with CDDO for 24 h before adding the β-amyloid peptide fragment, amino acids 25-35, at a final concentration of 10 μM. This dosing with β-amyloid alone caused death of more than half of the neurons in the culture within 24 h, as measured by MTT assay.
# [2] = system: NO production in primary macrophages; test: Suppression of NO production in primary macrophages (FIG. 14C); type: cell-based, mouse; conditions: levels as low as 10^−9 M; IFN-γ 10 ng/ml, 48 h
# Procedure: as §1
# [3] = system: THP-1 monocytic leukemia line; test: Differentiation of leukemia cells (data not shown); type: cell-based, human; conditions: by itself or in combination with TGF-β1
# [4] = system: LPS-induced NO production in rat microglia; test: LPS-induced NO production in primary microglial cultures; type: cell-based; conditions: for inhibition of LPS induction of NO production: LPS 5 ng/ml, 18 h
# Procedure: as §2, §3
# COX-2 mRNA = test: Northern blot for IL-1β-induced COX-2 mRNA in 18Co colon myofibroblasts; type: cell-based, human; conditions: 18Co cells, IL-1β 30 pg/ml
# Procedure: as §1
smiles,measurement,setting,value
"CC1(C)CC[C@]2(C(=O)O)CC[C@]3(C)[C@H](C(=O)C=C4[C@@]5(C)C=C(C#N)C(=O)C(C)(C)[C@@H]5CC[C@]43C)[C@@H]2C1 [Compound 6, 2-cyano-3,12-dioxoolean-1,9-dien-28-oic acid]",blocking of COX-2 induction with TPA as inducer,COX-2,ineffective
same,inhibition of cumulative PGE2 production,[1],Significant inhibition
same,immediate effect on NO production (direct inhibition of iNOS),iNOS enzymatic activity,no immediate effect
same,protection against β-amyloid induced cell death,"rat hippocampal neurons; CDDO 10^−7 M, 24 h pretreatment, β-amyloid 25-35 10 μM, 24 h",totally prevented this cell death
same,protection against β-amyloid induced cell death,"rat hippocampal neurons; CDDO 10^−8 M, 24 h pretreatment, β-amyloid 25-35 10 μM, 24 h",totally prevented this cell death
same,protection against β-amyloid induced cell death,rat hippocampal neurons; doses as low as 10^−10 M,some protective activity
same,inhibition of cumulative NO production,[2],Significant inhibition
same,differentiative effects,[3],differentiative effects
same,inhibition of LPS induction of NO production,[4]; CDDO 10^−6 M,73%
same,inhibition of LPS induction of NO production,[4]; CDDO 10^−7 M,52%
same,activity on LPS-induced NO production compared with dexamethasone (FIG. 2),[4]; rat microglia cells,favorable to that of dexamethasone
same,induction of COX-2 mRNA,COX-2 mRNA,blocked induction
